Patent US20030092739A1, “Heterocyclic compounds” (priority 2001, published 2003)
Read-outs that look alike come from different tables or passages of the source.

Test system: aphids
Test: Biological Test On Aphid (spray on cabbage leaf in Petri dish)
Assay type: in vivo
Conditions: for Number of dead aphids 1st: 1st replicate; for Number of dead aphids 1st / Number of dead aphids 2nd / Number of dead aphids 3rd / Number of dead aphids 4th: 20 aphids on cabbage leaf, 9.6% w/w pesticide reagent diluted 1000 times with water, sprayed, examined 24 hours later; for Number of dead aphids 2nd: 2nd replicate; for Number of dead aphids 3rd: 3rd replicate; for Number of dead aphids 4th: 4th replicate; for Number of dead aphids Average: average of four replicates; for pest or weed control at 96 µg/mL: read-out: Kill ratio
Experimental: The compound obtained from Example 1 was mixed with a solvent to form a 9.6% w/w pesticide reagent. An 8 cm×8 cm piece of clean cabbage leaf was placed on a lump of wet cotton in a Petri dish, and then 20 aphids were put on the cabbage leaf in the Petri dish. The thus formed pesticide reagent was diluted 1000 times with water to form a dilution that was then sprayed onto the cabbage leaf in the Petri dish with a predetermined amount. The number of dead aphids was examined 24 hours later, and the kill ratio was calculated. The test was carried out through four replicates.
Example 9 was repeated, except that the compound employed in Example 9 was replaced by the compound obtained from a respective one of the Examples 2 to 8.
Example 9 was repeated, except that the compound employed in Example 9 was replaced by imidachloprid, a heterocyclic compound of the formula disclosed in U.S. Pat. No. 4,742,060 that can be useful as pesticides.

[1] = 20 aphids, 9.6% w/w reagent diluted 1000 times, 24 hours
[2] = calculated from number of dead aphids, 20 aphids, 9.6% w/w reagent diluted 1000 times, 24 hours, four replicates

Compound	Number of dead aphids 1st	Number of dead aphids 2nd	Number of dead aphids 3rd	Number of dead aphids 4th	Number of dead aphids Average [1]	Kill ratio [2]	pest or weed control at 96 µg/mL (24 h) [%]	pest or weed control at 96 µg/mL [2] [%]
O=[N+]([O-])/N=C1\NCCN1Cc1ccc(Cl)nc1 [Comparative Example 1, imidachloprid, reference compound]	17	17	18	17	17.25	85.90	–	–
N#CNCc1ccc(Cl)nc1 [Example 9, 6-chloro-pyridin-3-ylmethyl-cyanamide]	19	19	20	20	19.25	–	96.2	–
CS/C(C)=N/OCc1ccc(Cl)nc1 [Example 10, N-(6-chloro-pyridin-3-ylmethoxy)-thioacetimidic Acid Methyl Ester]	18	17	18	17	17.5	–	–	87.2
CC(C)Oc1ccccc1OCc1ccc(Cl)nc1 [Example 11, 2-chloro-5-(2-isopropoxy-phenoxymethyl)-pyridine]	16	19	18	18	17.75	–	–	88.5
CSc1c(C)cc(OCc2ccc(Cl)nc2)cc1C [Example 12, 2-chloro-5-(3,5-dimethyl-4-methylsulfanyl-phenoxymethyl)-pyridine]	20	19	19	19	19.25	–	–	96.2
Clc1ccc(COc2cccc3ccccc23)cn1 [Example 13, 2-chloro-5-(naphthalen-1-yloxymethyl)-pyridine]	18	17	16	17	17	–	–	84.6
CC1(C)Cc2cccc(OCc3ccc(Cl)nc3)c2O1 [Example 14, 2-chloro-5-(2,2-dimethyl-2,3-dihydro-benzofuran-7-yloxymethyl)-pyridine]	17	16	18	16	16.75	–	–	83.3
CNC(=O)Nc1nc2ccccc2n1Cc1ccc(Cl)nc1 [Example 15, 1-[1-(6-chloro-pyridin-3-ylmethyl)-1H-benzoimidazol-2-yl]-3-mehtyl-urea]	17	17	16	16	16.5	–	82	–
CNC(=O)Nc1nc2ccccc2n1Cc1csc(Cl)n1 [Example 16, 1-[1-(2-chloro-thiazol-4-ylmethyl)-1H-benzoimidazol-2-yl]-3-methyl-urea]	19	16	16	16	16.75	–	–	83.3
